Like-named read-outs stand apart in the source and are kept apart here. Where no end group is shown, it is not given here.
Key:
[1] = test system: chick chorioallantoic membrane (CAM) angiogenesis; test: Chick chorioallantoic membrane (CAM) angiogenesis assay; type: in vivo, chicken; conditions: for Angiogenic response (% inhibition): relative to control gels, mean ± SD; for activity in the CAM assay: in vivo
Description: Fertilized Leghorn chicken eggs were obtained from Ramona Duck farm (Westminster, Calif.). At day 3 of development, the embryos were placed on 100 mm petri dishes. Assays were performed as previously described (Iruela-Arispe et al., 1999). […] Peptides were filtered on Centricon P100 prior to their analysis on the CAM assays to eliminate traces of endotoxin. Pellets were applied to the outer ⅓ of the CAM, and the assay was performed for 24 h. Detection of capillary growth was done by injection of FITC-dextran in the bloodstream and observation of the pellets under a fluorescent inverted microscope. Positive controls (growth factors and vehicle), as well as negative controls (vehicle alone) were placed in the same CAM and used as reference of 100% stimulation or baseline inhibition (0%), and response to the peptides was determined according to these internal controls. Assays were performed in duplicate in each CAM and in four independent CAMs (total of 8 pellets).

BAE cells [2] = test: Scratch wound repair of BAE cells; type: cell-based, bovine; conditions: cells arrested using 5-fluorouracil; 24 h
Description: BAE cells were seeded at a density of 2×10^5 cells/well of 6 well tissue culture plates in complete growth medium supplemented with 10% FBS. After the cells formed a confluent cobblestone, cells were arrested using 10 μg/ml 5-fluorouracil for 48 h. Scrape wounds of 2 mm, width were made in the wells, and the cells were further incubated with medium containing 10% FBS, 10 μg/ml 5 fluorouracil and peptides 678, 709, or 690. Measurements of the distance between the wound margins were taken at 0 and 24 h, and the net migration is expressed as mean±SEM for triplicates.
The in vitro wound healing assay used was a slight modification of that described by Joyce et al. (Joyce et al., 1989). A confluent monolayer of BAE cells pretreated with 10 μg/ml 5-fluorouracil for […] were used in this assay. […] Mitosis of the BAE cells in the monolayers was inhibited by addition of 5-fluorouracil, so that the rate of wound closure was due solely to the migration of cells into the wound sites. The distances between the wound margins were measured as soon as the wound was made and 24 hours later using a grid incorporated into the eye piece of the microscope. All data represent the results obtained from three independent scratch wounds for each peptide tested.

HUVEC = HUVEC spreading on coated substrates; type: cell-based, human; conditions: data not shown
Description: FIGS. 14A, 14B and 14C display α3β1 and αvβ3 integrin-mediated spreading of endothelial cells on thrombospondin-1. […] Results are expressed as percent of the response for untreated cells, mean±S.D., n=3.
(§1) Adhesion assays of cells other than small cell lung carcinoma (SCLC)-Adhesion was measured on polystyrene or glass substrates coated with peptides or proteins as previously described (Guo et al., 1992). Peptides dissolved in PBS at 0.4 to 50 μM were incubated in polystyrene microliter plate wells overnight at 4° C. The wells were washed 3 times with distilled water. Adsorbed peptide was quantified using the BCA assay (Pierce Chemical) measuring absorbance at 570 and 630 nm as described by the supplier's protocol. The assay for adsorption was calibrated using purified peptide in solution as a standard. After blocking with 1% BSA in Dulbecco's PBS, adhesion assays were performed by adding cells suspended in DMEM (BAE cells) or medium 199 (human cells) containing 1 mg/ml BSA. Cell attachment and spreading was quantified microscopically.

HDME cells [3] = test: HDME cell spreading on coated substrates; type: cell-based, human
Description: Spreading was determined microscopically for cells with no additions, in the presence of 10 μM peptide 678, or in the presence of 30 μM of the control peptide 690. Results are presented as mean±SD, n=3. […] The percent spread cells was determined at 60 min.
as §1

H345 SCLC cells = test: SCLC cell adhesion to extracellular matrix proteins, H345; type: cell-based, human
Description: (§2) For adhesion assays of SCLC, these cells were washed once with RPMI 1640 and centrifuged at 400×g for 3 min. The pellet was suspended in 2.5 mM EDTA in PBS, pH 7.4 and incubated for 10 min at 37° C. After trituration three times and centrifugation, the cells were resuspended in RPMI 1640 containing 0.1% BSA (Sigma Co. St Louis, Mo.).
(§3) Adhesion of SCLC cells to extracellular matrix proteins. Extracellular matrix proteins or peptides in Dulbecco's PBS were adsorbed onto polystyrene by incubating overnight at 4° C. […] The supernatant fluid was removed, and the dishes were incubated with Tris-gelatin (ICN) (50 mM Tris-HCl, 110 mM NaCl, 5 mM CaCl2, 0.1 mM phenylmethylsulfonyl fluoride, 0.2% gelatin and 0.02% NaN3, pH 7.8) or Dulbeccos PBS with 1% BSA, as indicated, for 30 min to minimize nonspecific adhesion. The disks were washed twice with cold PBS, pH 7.2 and overlayed with dissociated SCLC cells prepared as described above at a density of 2.5×10^5/cm^2.
(§4) For inhibition studies with SCLC cells, inhibitors or antibodies were added and incubated with SCLC cells at the indicated concentrations. After incubation for 60-90 min at 37° C., the disks were washed by dipping six times in PBS, pH 7.2, fixed with 1% glutaraldehyde in PBS, pH 7.2, and stained with Diff-Quik. Attached cells were counted microscopically.

N417 SCLC cells = test: SCLC cell adhesion to extracellular matrix proteins, N417; type: cell-based, human
Description: as §2, §3, §4

H69 SCLC cells = test: SCLC cell adhesion to extracellular matrix proteins, H69; type: cell-based, human
Description: as §2, §3, §4

HDME cells [4] = test: HDME cell proliferation; type: cell-based, human
Description: (§5) Briefly, 100 μl of a 5×10^4 cell/ml suspension of BAE cells were seeded in triplicate into 96 well tissue culture plate in DMEM medium containing 1% FCS, 10 ng/ml of FGF2 and peptides at 1-40 μM concentrations. Cells were incubated for 72 h, and proliferation was measured using the Celltiter tetrazolium assay (Promega). […] Proliferation was determined at 72 h, and is presented as a percent of the control, mean±S.D., n=3 for experimental points and n=6 for control. […] FIG. 19E: HDME cell proliferation in MCDB growth medium with 5% FCS was determined in the presence of 10 ng/ml FGF2 and the indicated concentrations of TSP1 added in the medium (Δ) or immobilized on the substrate (●) or in wells coated with the indicated concentrations of peptide 678 (●).
(§6) Cell proliferation was measured using the Cell-Titer colorimetric assay (Promega) as previously described (Vogel et al., 1993). A 100 μl volume of BAE cell suspension at 50,000 cells/ml in DMEM containing 1% FBS and supplemented with 10 ng/ml FGF2 was plated in triplicate in 96 well tissue culture plates either in the presence of peptides in solution or in wells that were pre-coated with 100 μl of the peptides at 40° C. overnight and aspirated just before adding cells. Cells were grown for 72 hours at 37° C. in a humidified incubator with 5% CO2. […] HDME cell proliferation was measured in MCDB growth medium without heparin, VEGF, or FGF2.

BAE cells [5] = test system: BAE cells
Description: Direct adhesion of BAE cells to the adsorbed peptides or uncoated substrate (control) are presented as mean±SD, n=3. […] Two flasks of BAE cells were grown to confluence. One flask was harvested and replated in fresh medium at 25% confluency. Fresh medium was added at the same time to the second flask. After 16 h, cells from both flasks were dissociated using EDTA and adhesion was measured on substrates coated with 40 μg/ml TSP1, 10 μg/ml vitronectin, 20 μg/ml plasma fibronectin, or 5 μg/ml type I collagen. The percent spread cells after 60 min is presented as mean±SD, n=3 for a representative experiment.

[6] = test system: MDA-MB-435 breast carcinoma cells; test: Inhibition of MDA-MB-435 cell adhesion to immobilized peptide 678 (microscopic adhesion assay); type: cell-based, human
Description: as §1

MDA-MB-435 cells = test: MDA-MB-435 cell chemotaxis in modified Boyden chambers; type: cell-based, human
Description: FIGS. 10A and 10B display the measurement of MDA-MB-435 cell chemotaxis. Panel A: Dose-dependence for stimulation of MDA-MB-435 cell motility by peptide 678 added to the lower well of a modified Boyden chamber. Cells migrated to the lower surface of an 8 μm pore polycarbonate filter were quantified microscopically after 7 h, mean±SD, n=3 for a representative experiment. […] Chemotaxis of untreated cells (striped bars) or cells treated with 10 nM IGF1 in the upper chamber (solid bars) was determined after 7 h and is presented as mean±S.D., n=3.

BAE cells [7] = conditions: added in solution
Description: as §5, §6

OH1 SCLC cells = type: cell-based, human; conditions: soluble
Description: Net, proliferation was determined by the CellTiter assay (Promega) and is presented as mean±SD, n=3. […] The cells were fixed and photographed using Nomarski optics. Bar=100 μm. […] Panel E: α3β1 Integrin ligands cooperate with EGF to inhibit OH1 cell proliferation. […] Net proliferation is presented as a percent of the -EGF control (mean±SD, n=3 for treated groups and n=6 for control groups).
Proteins and peptides were immobilized on Nunc Maxisorp 96 well plates by overnight incubation with the proteins or peptides dissolved in 50 μl of sterile Dulbecco's PBS. The supernatant fluid was removed, and the wells were incubated for 30 min. in DPBS containing 1% BSA. OH1 cells (1×10^4/well) were added in RPMI containing 15% FCS and incubated for 72 h at 37° in 5% CO2. For assessing inhibition by soluble proteins or peptides, OH1 cells were grown in suspension in Nunclon 96 well tissue culture plates using the same medium.

[8] = cells harvested from a confluent monolayer
[9] = Table 3, 5 μM peptide 678, read-out: IC50 (μM), inhibition of MDA-MB-435 cell adhesion to immobilized peptide 678
[10] = microscopic adhesion assay, polystyrene coated with 5 μM peptide 678, peptides in solution, read-out: Inhibition of peptide 678 (IC50)

ri-FQGVLQNVRFVF [Peptide 709]
Angiogenic response (% inhibition) ([1]; 5 μM peptide): 5 ± 4%
Angiogenic response (% inhibition) ([1]; 10 μM peptide): 25 ± 13%
Angiogenic response (% inhibition) ([1]; 20 μM peptide): 39 ± 13%
activity in the CAM assay [1]: enhanced activity
inhibition of BAE cell migration into the wound (BAE cells [2]): dose-dependent inhibitor

TSP1: calcium replete thrombospondin-1 purified from human platelets
percent spread HUVEC on immobilized substrate (HUVEC; confluent cells): 41±5%
percent spread HUVEC on immobilized substrate (HUVEC; sparse cultures): 46±7%
percent spread HDME cells on immobilized substrate (HDME cells [3]; cells from sparse culture): 29%
percent spread HDME cells on immobilized substrate (HDME cells [3]; [8]): 6%
SCLC cell adhesion (H345 SCLC cells; 6.2 μg/ml): 1 ± 1 cells/mm2
SCLC cell adhesion (H345 SCLC cells; 12.5 μg/ml): 7 ± 1 cells/mm2
SCLC cell adhesion (H345 SCLC cells; 25 μg/ml): 124 ± 17 cells/mm2
SCLC cell adhesion (H345 SCLC cells; 50 μg/ml): 165 ± 6 cells/mm2
SCLC cell adhesion (N417 SCLC cells; 6.2 μg/ml): 15 ± 2 cells/mm2
SCLC cell adhesion (N417 SCLC cells; 12.5 μg/ml): 30 ± 4 cells/mm2
SCLC cell adhesion (N417 SCLC cells; 25 μg/ml): 48 ± 4 cells/mm2
SCLC cell adhesion (N417 SCLC cells; 50 μg/ml): 55 ± 10 cells/mm2
SCLC cell adhesion (H69 SCLC cells; 12.5 μg/ml): 46 ± 8 cells/mm2
SCLC cell adhesion (H69 SCLC cells; 25 μg/ml): 94 ± 6 cells/mm2
SCLC cell adhesion (H69 SCLC cells; 50 μg/ml): 110 ± 14 cells/mm2
SCLC cell adhesion (H69 SCLC cells; substrate coated at 6.2 μg/ml, mean ± S.D., n = 3): 6 ± 1 cells/mm2
HDME cell proliferation after plating on immobilized substance (HDME cells [4]): enhancement
percent spread BAE cells on substrate (BAE cells [5]; [8]): less than 10%

FQGVLQNVAFVF [Peptide 690]
IC50 [6, 9]: > 300 µM
IC50 [6, 10]: > 300 µM
Angiogenic response (% inhibition) ([1]; 5 μM peptide): 3 ± 3%
Angiogenic response (% inhibition) ([1]; 10 μM peptide): 5 ± 3%
Angiogenic response (% inhibition) ([1]; 20 μM peptide): 2 ± 5%
activity in the CAM assay [1]: inactive
stimulation of chemotaxis (MDA-MB-435 cells): inactive
inhibition of BAE cell migration into the wound (BAE cells [2]): did not inhibit
inhibition of density-dependent BAE spreading on intact TSP1 and the TSP1 peptide (BAE cells [5]; peptide added in solution): not significantly inhibited
endothelial cell attachment on immobilized peptide (BAE cells [5]; peptides adsorbed at 10 μM (FIG. 11A)): not

FQGVLQAVRFVF [Peptide 686]
IC50 [6, 9]: > 300 µM
IC50 [6, 10]: > 300 µM
Angiogenic response (% inhibition) ([1]; 5 μM peptide): 3 ± 4%
Angiogenic response (% inhibition) ([1]; 10 μM peptide): 4 ± 6%
Angiogenic response (% inhibition) ([1]; 20 μM peptide): 15 ± 7%
activity in the CAM assay [1]: reduced activity
inhibition of BAE cell proliferation (BAE cells [7]): inactive
inhibition of OH1 cell proliferation (OH1 SCLC cells): inactive
